Measurements from BindingDB's records for doi:10.1016/j.bmcl.2005.11.011 (University of Pennsylvania, 2006).

Biological target: T1, Dimer of Gag-Pol polyprotein [489-587] (Human immunodeficiency virus 1, UniProt P12497)
T1 construct: 489-587
Test: Protease Inhibition Assay
Details: pH 5.5; 30 °C

Which IC50 does the source give for `CC(C)(C)OC(=O)N[C@@H](Cc1ccccc1)[C@@H](O)C[C@]1(Cc2ccccc2)N=CC(C2c3ccccc3[C@H]3NC(=O)O[C@@H]23)C1=O` (stereo partly drawn) [tert-butyl N-[(2S,3S)-4-[(2S)-4-[(3aR,8aS)-2-oxo-2H,3H,3aH,8H,8aH-indeno[1,2-d][1,3]oxazol-8-yl]-2-benzyl-3-oxo-2,3-dihydro-1H-pyrrol-2-yl]-3-hydroxy-1-phenylbutan-2-yl]carbamate] here?
The IC50 was 2.5 nM.

Which IC50 does the source give for `O=C(N[C@@H](Cc1ccccc1)[C@@H](O)C[C@]1(Cc2ccccc2)N=CC(C2c3ccccc3[C@H]3NC(=O)O[C@@H]23)C1=O)O[C@H]1CCOC1` (stereo partly drawn) [(3S)-oxolan-3-yl N-[(2S,3S)-4-[(2S)-4-[(3aR,8aS)-2-oxo-2H,3H,3aH,8H,8aH-indeno[1,2-d][1,3]oxazol-8-yl]-2-benzyl-3-oxo-2,3-dihydro-1H-pyrrol-2-yl]-3-hydroxy-1-phenylbutan-2-yl]carbamate] here?
Its IC50 is 0.44 nM.

For `NC(=O)O[C@@H]1Cc2ccccc2C1C1C=N[C@@](Cc2ccccc2)(C[C@H](O)[C@H](Cc2ccccc2)NC(=O)O[C@H]2CCOC2)C1=O` (stereo partly drawn) [(3S)-oxolan-3-yl N-[(2S,3S)-4-[(2S)-2-benzyl-4-[(2R)-2-(carbamoyloxy)-2,3-dihydro-1H-inden-1-yl]-3-oxo-2,3-dihydro-1H-pyrrol-2-yl]-3-hydroxy-1-phenylbutan-2-yl]carbamate], which IC50 is on record?
Its IC50 is 2 nM.

`O=C(N[C@@H](Cc1ccccc1)[C@@H](O)C[C@]1(Cc2ccccc2)N=CC(C2c3ccccc3C[C@H]2O)C1=O)O[C@H]1CCOC1` (stereo partly drawn) [(3S)-oxolan-3-yl N-[(2S,3S)-4-[(2S)-2-benzyl-4-[(2R)-2-hydroxy-2,3-dihydro-1H-inden-1-yl]-3-oxo-2,3-dihydro-1H-pyrrol-2-yl]-3-hydroxy-1-phenylbutan-2-yl]carbamate] was tested. Which IC50 did it give?
The IC50 was 2 nM.

How did the IC50 turn out when `O=C(N[C@@H](Cc1ccccc1)[C@@H](O)C[C@]1(Cc2ccccc2)N=CC(C2CNC(=O)c3ccccc32)C1=O)O[C@H]1CCOC1` (stereo partly drawn) [(3S)-oxolan-3-yl N-[(2S,3S)-4-[(2S)-2-benzyl-3-oxo-4-(1-oxo-1,2,3,4-tetrahydroisoquinolin-4-yl)-2,3-dihydro-1H-pyrrol-2-yl]-3-hydroxy-1-phenylbutan-2-yl]carbamate] was run?
Its IC50 is 5.7 nM.

`CC(C)(C)CC(=O)N[C@@H](Cc1ccccc1)[C@@H](O)C[C@]1(Cc2ccccc2)N=CC(C2C[C@H](CC(N)=O)c3ccccc32)C1=O` (stereo partly drawn) [N-[(2S,3S)-4-[(2S)-2-benzyl-4-[(3R)-3-(carbamoylmethyl)-2,3-dihydro-1H-inden-1-yl]-3-oxo-2,3-dihydro-1H-pyrrol-2-yl]-3-hydroxy-1-phenylbutan-2-yl]-3,3-dimethylbutanamide] was tested. Which IC50 did it give?
The IC50 was greater than 250 nM.

`CC(C)(C)CC(=O)N[C@@H](Cc1ccccc1)[C@@H](O)C[C@]1(Cc2ccccc2)N=CC(C2c3ccccc3[C@H]3NC(=O)O[C@@H]23)C1=O` (stereo partly drawn) [N-[(2S,3S)-4-[(2S)-4-[(3aR,8aS)-2-oxo-2H,3H,3aH,8H,8aH-indeno[1,2-d][1,3]oxazol-8-yl]-2-benzyl-3-oxo-2,3-dihydro-1H-pyrrol-2-yl]-3-hydroxy-1-phenylbutan-2-yl]-3,3-dimethylbutanamide] was tested. Which IC50 did it give?
The IC50 was 96 nM.

`CC(C)(C)OC(=O)N[C@@H](Cc1ccccc1)[C@@H](O)C[C@]1(Cc2ccccc2)N=CC(C2C[C@H](CC(N)=O)c3ccccc32)C1=O` (stereo partly drawn) [tert-butyl N-[(2S,3S)-4-[(2S)-2-benzyl-4-[(3R)-3-(carbamoylmethyl)-2,3-dihydro-1H-inden-1-yl]-3-oxo-2,3-dihydro-1H-pyrrol-2-yl]-3-hydroxy-1-phenylbutan-2-yl]carbamate] was tested. Which IC50 did it give?
Its IC50 is 20.5 nM.
